This is an account of results in article PMC7663645 (Molecules, 2020).

Where only a bound is given, the exact number is not on record here.

The first assay relates to MAO-B.
Assay: not given
More on the design: method as in PMID 31060887. The note with it: cited from earlier work.
For the compound `COC[C@@H]1CN(c2noc3cc(OCCCCC[18F])ccc23)C(=O)O1` [[^18F]6], the IC50 is 0.11 µM.

Another assay relates to recombinant human MAO-B.
Assay: not given
Set-up: method as in earlier work. The note with it: cited from earlier work.
L-[^18F]Deprenyl: the IC50 was 0.227 ± 0.0368 µM.

The next assay concerns the target T1, MAO-B (Rattus norvegicus, UniProt P19643).
T1 construct: from tissue; host or cells: rat brain (membrane homogenates)
T1 sequence (P19643 1-520): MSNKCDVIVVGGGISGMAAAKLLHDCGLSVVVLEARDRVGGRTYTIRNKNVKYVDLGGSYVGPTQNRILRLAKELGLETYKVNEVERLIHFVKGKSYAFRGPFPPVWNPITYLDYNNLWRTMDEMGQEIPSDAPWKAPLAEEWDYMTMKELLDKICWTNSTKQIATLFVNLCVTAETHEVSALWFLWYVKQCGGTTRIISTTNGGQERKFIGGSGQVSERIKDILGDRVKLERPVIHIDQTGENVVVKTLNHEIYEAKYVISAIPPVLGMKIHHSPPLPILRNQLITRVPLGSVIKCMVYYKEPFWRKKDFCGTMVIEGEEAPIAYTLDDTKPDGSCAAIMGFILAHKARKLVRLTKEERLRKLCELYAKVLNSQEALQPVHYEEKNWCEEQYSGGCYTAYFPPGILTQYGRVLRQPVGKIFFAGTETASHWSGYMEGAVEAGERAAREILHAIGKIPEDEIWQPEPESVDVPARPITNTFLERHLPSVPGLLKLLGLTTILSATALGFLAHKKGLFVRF
Briefly: Radioligand competition binding assay with L-[^3H]Deprenyl on rat brain membrane homogenates. The note with it: homologous binding experiments, rat brain homogenates. As for the experimental part:
The affinity of the synthesized derivatives towards MAO-B was determined in radioligand competition binding assays. […] Non-specific binding was determined in the presence of 10 μM of rasagiline. The reaction was terminated by rapid filtration using Whatman GF/B glass-fiber filters, pre-soaked in 0.3% polyethyleneimine, and a 48-channel harvester (Biomedical Research and Development Laboratories, Gaithersburg, MD, USA) followed by washing four times with ice-cold TRIS-HCl buffer. Filter-bound radioactivity was quantified by liquid scintillation counting. The results represent two single experiments, each performed in triplicate. […] The data were analyzed with GraphPad Prism, Version 4.1 (GraphPad Inc., La Jolla, CA, USA).
Compound L-[^3H]Deprenyl [reference compound] displayed a Bmax of 2.29 ± 2.08 pmol/mg protein.

Staying with this assay, now noted: read-out: IC50 (MAO-B binding affinity).
For `O=C(c1ccc(F)cc1)N1CCN(C/C=C/c2ccccc2)CC1` [Compound 8, (E)-(4-cinnamylpiperazin-1-yl)(4-fluorophenyl)methanone], the IC50 is > 10 µM.
Same read-out and setting: the result for `Fc1cccc(N2CCN(CC=Cc3ccccc3)CC2)n1` [Compound 9, 1-Cinnamyl-4-(6-fluoropyridin-2-yl)piperazine] reads > 10 µM; that for `Fc1ccc(N2CCN(CC=Cc3ccccc3)CC2)cn1` [Compound 10, 1-Cinnamyl-4-(6-fluoropyridin-3-yl)piperazine], > 10 µM.
`Fc1cc(N2CCN(CC=Cc3ccccc3)CC2)ccn1` [Compound 11, 1-Cinnamyl-4-(2-fluoropyridin-4-yl)piperazine]: the IC50 is > 10 µM.
The same measure, in the same setting: the value for `Fc1ncccc1N1CCN(CC=Cc2ccccc2)CC1` [Compound 12, 1-Cinnamyl-4-(2-fluoropyridin-3-yl)piperazine] was > 10 µM; that for `O=C(c1ccc(F)cc1)N1CCN(C/C=C/c2ccccc2F)CC1` [Compound 13, (E)-(4-Fluorophenyl)(4-(3-(2-fluorophenyl)allyl)piperazin-1-yl)methanone] was > 10 µM; that for `Fc1cccc(N2CCN(C/C=C/c3ccccc3F)CC2)n1` [Compound 14, (E)-1-(3-(2-Fluorophenyl)allyl)-4-(6-fluoropyridin-2-yl)piperazine] was > 10 µM.
Still for that read-out and setting: the value for `Fc1ccc(N2CCN(C/C=C/c3ccccc3F)CC2)cn1` [Compound 15, (E)-1-(3-(2-Fluorophenyl)allyl)-4-(6-fluoropyridin-3-yl)piperazine] was > 10 µM.
On the same count and under the same terms, the result for `Fc1cc(N2CCN(C/C=C/c3ccccc3F)CC2)ccn1` [Compound 16, (E)-1-(3-(2-Fluorophenyl)allyl)-4-(2-fluoropyridin-4-yl)piperazine] reads > 10 µM.
As to `Fc1ccccc1/C=C/CN1CCN(c2cccnc2F)CC1` [Compound 17, (E)-1-(3-(2-Fluorophenyl)allyl)-4-(2-fluoropyridin-3-yl)piperazine], the IC50 is > 10 µM.
